Measured values from patent US8796474.

Settings: from CC[C@@H](O)C(C)=C=C[C@@H](OCc1ccccc1)[C@H](C)CC(C)=C=C[C@H](OCc1ccccc1)[C@@H](C)C(=O)O; ester bond; 2,4,6-trichlorobenzoyl chloride / TEA / DMAP (Yamaguchi); toluene; 3.18 mM; 80.0 °C; 8.0 h

For `CC[C@H]1OC(=O)[C@H](C)[C@@H](OCc2ccccc2)C=C=C(C)C[C@@H](C)[C@H](OCc2ccccc2)C=C=C1C`, the ring closure, yield of all isomers was 64%.
